From patent publication US9951043B2, “Therapeutic compounds” (Gilead Sciences, Inc., priority 2013, dated 2018)
Where two headings read alike, the source gives them in different places.

Legend:
HIV-IIIb = test: Test A: Antiviral Assay in MT4 Cells; assay type: cell-based, HIV-1; settings: for % inhibition at 0.2 μM (percent inhibition of virus-induced cell killing): 0.2 μM drug concentration; for % inhibition at 0.2 μM (percent inhibition of virus-induced cell killing) / % inhibition at 2 μM (percent inhibition of virus-induced cell killing): MT-4 cells infected with HIV-IIIb, 5 days, calculated from the dose response curve, values above 100 normalized to 100%; for % inhibition at 2 μM (percent inhibition of virus-induced cell killing): 2 μM drug concentration; for inhibition at 0.2 µM / inhibition at 2 µM: Human immunodeficiency virus 1, IIIB, comparison with previously published compounds (WO 2013/006738); for inhibition at 0.2 µM: MT4, read-out: Response at 0.2 μM (percent inhibition of virus-induced cell killing), 0.2 μM; for inhibition at 2 µM: MT4, read-out: Response at 2 μM (percent inhibition of virus-induced cell killing), 2 μM
Method: Test A: Antiviral Assay in MT4 Cells
(§1) MT-4 cells were next mixed with HIV-IIIb at an m.o.i of 0.003 for 1 hour, after which time 35 μL of virus/cell mixture (2000 cells) was immediately added to each well containing 40 μL of diluted compound. The plates were then incubated at 37° C. for 5 days. […] Cell lysis was carried out by incubating at room temperature for 10 min and then chemiluminescence was read.
The data above represent an average over time of each assay for each compound. […] Thus, the data reported in the tables include the data reported in the priority document, as well as data from assays run in the intervening period.

uninfected MT-4 cells = test: Test B: Cytotoxicity Assay; assay type: cell-based
Method: as §1
Test B: Cytotoxicity Assay
Compound cytotoxicity and the corresponding CC50 values was determined using the same protocol as described in the antiviral assay (Test A) except that uninfected cells were used.

[1] = uninfected MT-4 cells, same protocol as Test A, 5 days, read-out: CC50

Compound | % inhibition at 0.2 μM (percent inhibition of virus-induced cell killing) (HIV-IIIb) | % inhibition at 2 μM (percent inhibition of virus-induced cell killing) (HIV-IIIb) | CC50 (uninfected MT-4 cells) | inhibition at 0.2 µM (HIV-IIIb) | inhibition at 2 µM (HIV-IIIb) | CC50 (uninfected MT-4 cells; [1])
Cn1nc(N)c2c(Cl)ccc(-c3ccc(C#CC(C)(C)O)nc3[C@H](Cc3cc(F)cc(F)c3)NC(=O)Cn3nc(C(F)(F)F)c4c3C(F)(F)[C@@H]3C[C@H]43)c21 [Compound 55C] | 92% | 92% | 9.56 µM |  |  | 
Cn1nc(NS(C)(=O)=O)c2c(Cl)ccc(-c3ccc(C#CC(C)(C)O)nc3[C@H](Cc3cc(F)cc(F)c3)NC(=O)Cn3nc(C4(O)CC4)c4c3CCCC4)c21 [Compound 156E, (S)—N-(1-(3-(4-chloro-1-methyl-3-(methylsulfonamido)-1H-indazol-7-yl)-6-(3-hydroxy-3-methylbut-1-yn-1-yl)pyridin-2-yl)-2-(3,5-difluorophenyl)ethyl)-2-(3-(1-hydroxvcyclopropyl)-4,5,6,7-tetrahydro-1H-indazol-1-yl)acetamide] | 78% | 78% | 25.6 µM |  |  | 
Cn1nc(N)c2c(C#N)ccc(-c3ccc(C#CC(C)(C)O)nc3[C@H](Cc3cc(F)cc(F)c3)NC(=O)Cn3nc(C(F)F)c4c3C(F)(F)[C@@H]3C[C@H]43)c21 [Compound 77E] | 96% | 97% | 11.8 µM |  |  | 
NC(=O)c1cc(-c2ccc(-c3ccc(F)c(C(N)=O)c3)c([C@H](Cc3cc(F)cc(F)c3)NC(=O)Cn3nc(C(F)F)c4c3C(F)(F)CCC4(F)F)n2)ccc1F |  |  |  | 3% | 58% | 
CC(C)(O)C#Cc1ccc(-c2ccc(Cl)n3c(NS(C)(=O)=O)nnc23)c([C@H](Cc2cc(F)cc(F)c2)NC(=O)Cn2nc(C(F)F)c3c2C(F)(F)[C@@H]2C[C@H]32)n1 [Compound 110E] | 15% | 98% | > 53.2 µM |  |  | 
Cn1nc(NS(=O)(=O)C(F)(F)F)c2c(Cl)ccc(-c3ccc(C#CC(C)(C)O)nc3[C@H](Cc3cc(F)cc(F)c3)NC(=O)Cn3nc(C(F)F)c4c3C(F)(F)[C@@H]3C[C@H]43)c21 [Compound 171D] |  |  | > 42.5 µM |  |  | 
Cn1nc(NS(C)(=O)=O)c2c(Cl)ccc(-c3ccc(C#CC(C)(C)O)nc3[C@H](Cc3cccc(F)c3)NC(=O)Cn3nc(C(F)(F)F)c4c3C(F)(F)[C@@H]3C[C@H]43)c21 [Compound 187G, N—((S)-1-(3-(4-chloro-1-methyl-3-(methylsulfonamido)-1H-indazol-7-yl)-6-(3-hydroxy-3-methylbut-1-yn-1-yl)pyridin-2-yl)-2-(3-fluorophenyl)ethyl)-2-((3b,4aR)-5,5-difluoro-3-(trifluoromethyl)-3b,4,4a,5-tetrahydro-1H-cyclopropa[3,4]cyclopenta[1,2-c]pyrazol-1-yl)acetamide] | 84% | 84% | 19.8 µM |  |  | 
CC(C)(O)C#Cc1ccc(-c2ccc3nnc(N)n3c2)c([C@H](Cc2cc(F)cc(F)c2)NC(=O)Cn2nc(C(F)F)c3c2C(F)(F)[C@@H]2C[C@H]32)n1 [Compound 105E] |  | 74% | 31.5 µM |  |  | 
CC(C)(O)C#Cc1ccc(-c2ccc(F)c(C(N)=O)c2)c([C@H](Cc2cc(F)cc(F)c2)NC(=O)Cn2nc(C(F)(F)F)c3c2C(F)(F)[C@@H]2C[C@H]32)n1 |  |  |  | 96% | 90% | 
CCNc1nn(C)c2c(-c3ccc(C#CC(C)(C)O)nc3[C@H](Cc3cc(F)cc(F)c3)NC(=O)Cn3nc(C(F)F)c4c3C(F)(F)[C@@H]3C[C@H]43)ccc(Cl)c12 [Compound 91E] | 100% | 100% | 9.38 µM |  |  | 
Cn1nc(NS(C)(=O)=O)c2c(Cl)ccc(-c3ccc(C#CC(C)(C)O)nc3[C@H](Cc3cc(F)cc(F)c3)NC(=O)Cn3nc(Cl)c4c3C(F)(F)[C@@H]3C[C@H]43)c21 [Compound 149, N—((S)-1-(3-(4-chloro-1-methyl-3-(methylsulfonamido)-1H-indazol-7-yl)-6-(3-hydroxy-3-methylbut-1-yn-1-yl)pyridin-2-yl)-2-(3,5-difluorophenyl)ethyl)-2-((3bS,4aR)-3-chloro-5,5-difluoro-3b,4,4a,5-tetrahydro-1H-cyclopropa[3,4]cyclopenta[1,2-c]pyrazol-1-yl)acetamide] |  |  |  |  |  | 26.7 µM
Cn1nc(NS(C)(=O)=O)c2c(Cl)ccc(-c3ccc(C#CC(C)(C)N)nc3[C@H](Cc3cc(F)cc(F)c3)NC(=O)Cn3nc(C(F)F)c4c3C(F)(F)[C@@H]3C[C@H]43)c21 [Compound 127, N—((S)-1-(6-(3-amino-3-methylbut-1-yn-1-yl)-3-(4-chloro-1-methyl-3-(methylsulfonamido)-1H-indazol-7-yl)pyridin-2-yl)-2-(3,5-difluorophenyl)ethyl)-2-((3bS,4aR)-3-(difluoromethyl)-5,5-difluoro-3b,4,4a,5-tetrahydro-1H-cyclopropa[3,4]cyclopenta[1,2-c]pyrazol-1-yl)acetamide] |  |  |  |  |  | 8.76 µM
COc1ccc(-c2ccc(C#CC(C)(C)O)nc2[C@H](Cc2cc(F)cc(F)c2)NC(=O)Cn2nc(C(F)F)c3c2C(F)(F)[C@@H]2C[C@H]32)c2c1c(N)nn2C [Compound 114G] | 100% | 100% | 14.8 µM |  |  | 
Cc1nc(NS(C)(=O)=O)c2cccc(-c3ccc(C#CC(C)(C)O)nc3[C@H](Cc3cc(F)cc(F)c3)NC(=O)Cn3nc(C(F)F)c4c3C(F)(F)[C@@H]3C[C@H]43)n12 [Compound 120H, 2-((3bS,4aR)-3-(difluoromethyl)-5,5-difluoro-3b,4,4a,5-tetrahydro-1H-cyclopropa[3,4]cyclopenta[1,2-c]pyrazol-1-yl)-N—((S)-2-(3,5-difluorophenyl)-1-(6-(3-hydroxy-3-methylbut-1-yn-1-yl)-3-(3-methyl-1-(methylsulfonamido)imidazo[1,5-a]pyridin-5-yl)pyridin-2-yl)ethyl)acetamide] |  |  |  |  |  | 11.7 µM
CC(C)(O)C#Cc1ccc(-c2cccc3c2CNC3=O)c([C@H](Cc2cc(F)cc(F)c2)NC(=O)Cn2nc(C(F)(F)F)c3c2C(F)(F)[C@@H]2C[C@H]32)n1 [Compound 15, 2-((3bS,4aR)-5,5-difluoro-3-(trifluoromethyl)-3b,4,4a,5-tetrahydro-1H-cyclopropa[3,4]cyclopenta[1,2-c]pyrazol-1-yl)-N—((S)-2-(3,5-difluorophenyl)-1-(6-(3-hydroxy-3-methylbut-1-yn-1-yl)-3-(1-oxoisoindolin-4-yl)pyridin-2-yl)ethyl)acetamide] | 93% | 94% |  |  |  | 10.3 µM
N—((S)-1-(3-(3-chloro-1H-benzofuro[3,2-c]pyrazol-5-yl)-6-(3-hydroxy-3-methylbut-1-yn-1-yl)pyridin-2-yl)-2-(3,5-difluorophenyl)-2-((3bS,4aR)-5,5-difluoro-3-(trifluoromethyl)-3b,4,4a,5-tetrahydro-1H-cyclopropa[3,4]cyclopenta[1,2-c]pyrazol-1-yl)acetamide [Compound 113D] |  | 97% | 1.09 µM |  |  | 
CC(C)(O)C#Cc1ccc(-c2ccc(Cl)n3c(N)nnc23)c([C@H](Cc2cc(F)cc(F)c2)NC(=O)Cn2nc(C(F)F)c3c2C(F)(F)[C@@H]2C[C@H]32)n1 [Compound 106E] | 95% | 96% | 12.4 µM |  |  | 
C#Cc1ccc(-c2ccc(Cl)c3cnn(C)c23)c([C@H](Cc2cc(F)cc(F)c2)NC(=O)Cn2nc(C(F)F)c3c2C(F)(F)[C@@H]2C[C@H]32)n1 [Compound 136D, N—((S)-1-(3-(4-chloro-1-methyl-1H-indazol-7-yl)-6-ethynylpyridin-2-yl)-2-(3,5-difluorophenyl)ethyl)-2-((3bS,4aR)-3-(difluoromethyl)-55-difluoro-3b,4,4a,5-tetrahydro-1H-cyclopropa[3,4]cyclopenta[1,2-c]pyrazol-1-yl)acetamide] |  |  | 7.43 µM |  |  | 
CC(C)(O)C#Cc1ccc(-c2ccc(F)c(C(N)=O)c2)c([C@H](Cc2cc(F)cc(F)c2)NC(=O)Cn2nc(C(F)F)c3c2C(F)(F)CCC3(F)F)n1 |  |  |  | 71% | 84% | 
Cn1nc(NS(C)(=O)=O)c2c(Cl)ccc(-c3ccc(C#CC(C)(C)O)nc3[C@H](Cc3cc(F)cc(F)c3)NC(=O)Cn3ncc4c3C(F)(F)[C@@H]3C[C@H]43)c21 [Compound 150, N—((S)-1-(3-(4-chloro-1-methyl-3-(methylsulfonamido)-1H-indazol-7-yl)-6-(3-hydroxy-3-methylbut-1-yn-1-yl)pyridin-2-yl)-2-(3,5-difluorophenyl)ethyl)-2-((3bS,4aR)-5,5-difluoro-3b,4,4a,5-tetrahydro-1H-cyclopropa[3,4]cyclopenta[1,2-c]pyrazol-1-yl)acetamide] |  |  |  |  |  | 28.9 µM
